According to US6689779B2, “Oxazolidinone derivatives and a process for the preparation thereof” (priority 2000, dated 2004):
Values after ≈ are worked out from the molar mass of the structure shown.

Tests used:
Format in all cases: cell-based
[1] = test system: ATCC 27294: Vancomycine Mycobacterium tuberculosis; test: Assay for in vitro antibacterial activity, agar dilution method: ATCC 27294; conditions: for MIC50: Mycobacterium tuberculosis, ATCC27294, read-out: Antibacterial Activity (MIC50) ATCC 27294; for Antibacterial Activity (MIC50) ATCC 27294: agar dilution method, Vancomycine Mycobacterium tuberculosis
[2] = test system: methicillin resistant Staphylococcus aureus; test: Assay for in vitro antibacterial activity, agar dilution method: MRSA; conditions: for Antibacterial Activity (MIC50) MRSA: agar dilution method, methicillin resistant Staphylococcus aureus
[3] = test system: vancomycin resistant Enterococci; test: Assay for in vitro antibacterial activity, agar dilution method: VRE; conditions: for Antibacterial Activity (MIC50) VRE: agar dilution method, vancomycin resistant Enterococci
H. Influenzae = test: Assay for in vitro antibacterial activity, agar dilution method: H. Influenzae

## N[C@@H]1CON=C1O [Cycloserine, reference compound]
[1]
  MIC50: 6.25 µg/mL (≈ 61.2 µM)

## CC(=O)NC[C@H]1CN(c2ccc(N3CCOCC3)c(F)c2)C(=O)O1 [Example U-100766, reference compound]
[2]; Staphylococcus aureus, MRSA, read-out: Antibacterial Activity (MIC50) MRSA
  MIC50: 3.13 µg/mL (≈ 9.28 µM)
[3]; Enterococcus, VRE, read-out: Antibacterial Activity (MIC50) VRE
  MIC50: 1.56 µg/mL (≈ 4.62 µM)
H. Influenzae; Haemophilus influenzae
  MIC50: 25 µg/mL (≈ 74.1 µM)
[1]
  MIC50: 1.56 µg/mL (≈ 4.62 µM)

## CC(=O)NC[C@H]1CN(c2ccc(-c3ccc(-n4cncn4)nc3)c(F)c2)C(=O)O1 [Exmp. 129, (S)-[N-3-(4-(2-(1,2,4-triazol-1-yl)pyridin-5-yl)-3-fluorophenyl)-2-oxo-5-oxazolidinyl]methyl acetamide]
[2]
  Antibacterial Activity (MIC50) MRSA: 0.39 µg/mL
[3]
  Antibacterial Activity (MIC50) VRE: 0.2 µg/mL
H. Influenzae
  Antibacterial Activity (MIC50) Influenzae: 6.25 µg/mL
[1]
  Antibacterial Activity (MIC50) ATCC 27294: 0.1 µg/mL

## CC(=O)NC[C@H]1CN(c2ccc(-c3ccc(-n4cnnn4)nc3)c(F)c2)C(=O)O1 [Exmp. 136, (S)-(N-3-(4-(2-(1-tetrazolyl)-pyridin-5-yl)-3-fluorophenyl)-2-oxo-5-oxazolidinyl)methyl acetamide]
[2]
  Antibacterial Activity (MIC50) MRSA: 0.78 µg/mL
[3]
  Antibacterial Activity (MIC50) VRE: 0.2 µg/mL
H. Influenzae
  Antibacterial Activity (MIC50) Influenzae: 12.5 µg/mL
[1]
  Antibacterial Activity (MIC50) ATCC 27294: 0.1 µg/mL

## CC(=O)NC[C@H]1CN(c2ccc(-c3ccc(-c4nnc(C)o4)nc3)c(F)c2)C(=O)O1 [Exmp. 137, (S)-[N-3-(4-(2-(5-methyl-(1,3,4)-oxadiazol-2-yl)-pyridin-5-yl)-3-fluorophenyl)-2-oxo-5-oxazolidinyl]methyl acetamide]
[2]
  Antibacterial Activity (MIC50) MRSA: 0.39 µg/mL
[3]
  Antibacterial Activity (MIC50) VRE: 0.2 µg/mL
H. Influenzae
  Antibacterial Activity (MIC50) Influenzae: 3.13 µg/mL
[1]
  Antibacterial Activity (MIC50) ATCC 27294: 0.1 µg/mL

## CC(=O)NC[C@H]1CN(c2ccc(-c3ccc(-c4noc(C)n4)nc3)c(F)c2)C(=O)O1 [Exmp. 138, (S)-[N-3-(4-(2-(5-methyl-(1,2,4)-oxadiazol-3-yl)pyridin-5-yl)-3-fluorophenyl)-2-oxo-5-oxazolidinyl]methyl acetamide]
[2]
  Antibacterial Activity (MIC50) MRSA: 0.78 µg/mL
[3]
  Antibacterial Activity (MIC50) VRE: 0.39 µg/mL
H. Influenzae
  Antibacterial Activity (MIC50) Influenzae: 3.13 µg/mL
[1]
  Antibacterial Activity (MIC50) ATCC 27294: 0.1 µg/mL

## CC(=O)NC[C@H]1CN(c2ccc(-c3ccc(-c4nnnn4C)nc3)c(F)c2)C(=O)O1 [Exmp. 139, (S)-[N-3-(4-(2-(1-methyl-5-tetrazolyl)-pyridin-5-yl)-3-fluorophenyl)-2-oxo-5-oxazolidinyl]methyl acetamide]
[2]
  Antibacterial Activity (MIC50) MRSA: 0.78 µg/mL
[3]
  Antibacterial Activity (MIC50) VRE: 0.2 µg/mL
H. Influenzae
  Antibacterial Activity (MIC50) Influenzae: 3.13 µg/mL
[1]
  Antibacterial Activity (MIC50) ATCC 27294: 0.1 µg/mL

## CC(=O)NC[C@H]1CN(c2ccc(-c3ccc(-c4nnn(C)n4)nc3)c(F)c2)C(=O)O1 [Exmp. 140, (S)-[N-3-(4-(2-(2-methyl-5-tetrazolyl)-pyridin-5-yl)-3-fluorophenyl)-2-oxo-5-oxazolidinyl]methyl acetamide]
[2]
  Antibacterial Activity (MIC50) MRSA: 0.78 µg/mL
[3]
  Antibacterial Activity (MIC50) VRE: 0.2 µg/mL
H. Influenzae
  Antibacterial Activity (MIC50) Influenzae: 12.5 µg/mL
[1]
  Antibacterial Activity (MIC50) ATCC 27294: 0.1 µg/mL

## CC(=O)NC[C@H]1CN(c2ccc(-c3ccc(N4CCOC4=O)nc3)c(F)c2)C(=O)O1 [Exmp. 143, (S)-[N-3-(4-(2-(2-oxo-(1,3)-oxazolidin-3-yl)-pyridin-5-yl)-3-fluorophenyl)-2-oxo-5-oxazolidinyl]methyl acetamide]
[2]
  Antibacterial Activity (MIC50) MRSA: 0.78 µg/mL
[3]
  Antibacterial Activity (MIC50) VRE: 0.2 µg/mL
H. Influenzae
  Antibacterial Activity (MIC50) Influenzae: 1.56 µg/mL
[1]
  Antibacterial Activity (MIC50) ATCC 27294: 0.1 µg/mL

## CC(=O)NC[C@H]1CN(c2ccc(-c3ccc(-c4nnn[nH]4)nc3)c(F)c2)C(=O)O1 [Exmp. 152, (S)-[N-3-(4-(2-(5-Tetrazolyl)-5-pyridinyl)-3-fluorophenyl)-2-oxo-5-oxazolidinyl]methyl Acetamide]
[2]
  Antibacterial Activity (MIC50) MRSA: >25 µg/mL
[3]
  Antibacterial Activity (MIC50) VRE: >25 µg/mL
H. Influenzae
  Antibacterial Activity (MIC50) Influenzae: >25 µg/mL
[1]
  Antibacterial Activity (MIC50) ATCC 27294: >25 µg/mL

## CO[C@H]1/C=C/O[C@@]2(C)Oc3c(C)c(O)c4c(O)c(c(/C=N/N5CCN(C)CC5)c(O)c4c3C2=O)NC(=O)/C(C)=C\C=C\[C@H](C)[C@H](O)[C@@H](C)[C@@H](O)[C@@H](C)[C@H](OC(C)=O)[C@@H]1C [Rifampin, reference compound]
[1]
  MIC50: 0.2 µg/mL (≈ 0.243 µM)
